According to ChEMBL document CHEMBL4483862, “Open-source discovery of chemical leads for next-generation chemoprotective antimalarials” (2018):

System: Plasmodium berghei
Assay: Luciferase/luciferin-expressing antifolate-resistant parasites were used to infect a culture of HepG2 cells that were pre-incubated with compounds. Infected hepatocytes emit light due to the luciferase reaction. Assay results are presented as the percent inhibition of light emission compared to control. […]
Format: functional
Settings: sporozoite; for IC90: read-out: LUCIFERASE INFECTION ASSAY - IC90

SMILES | IC90 [µM] | also measured
OC(c1ccc(Cl)c(F)c1)c1nc(-c2cccc(C(F)(F)F)c2)c[nH]1 (stereo not given) | > 8.9 | IC50 (FFLUC_HILL_SLOPE 12.1, FFLUC_R_SQUARED 0.0756, read-out: LUCIFERASE INFECTION ASSAY - IC50): > 8.9 µM
Cc1cc(-c2onc(C)c2C(=O)Sc2ccccc2)no1 | > 11 | IC50 (FFLUC_HILL_SLOPE 12.1, FFLUC_R_SQUARED 0.567, PBLUC_HILL_SLOPE 1.05, PBLUC_R_SQUARED 0.41, read-out: LUCIFERASE INFECTION ASSAY - IC50): > 11 µM
Oc1c(C(Nc2ncccn2)c2ccc(F)cc2)ccc2cccnc12 (stereo not given) | 3.55 | IC50 (FFLUC_HILL_SLOPE 12.3, FFLUC_R_SQUARED 0.0325, HEPG2TOX_HILL_SLOPE 1.16, HEPG2TOX_R_SQUARED 0.848, PBLUC_HILL_SLOPE 14, PBLUC_R_SQUARED 0.306, read-out: LUCIFERASE INFECTION ASSAY - IC50): 3.03 µM
CCOC(=O)c1c(C)[nH]c(C(=O)Nc2nc(-c3c(C)cc(C)cc3C)cs2)c1C | 9.66 | IC50 (FFLUC_HILL_SLOPE 12.1, FFLUC_R_SQUARED 0.461, HEPG2TOX_HILL_SLOPE 1.22, HEPG2TOX_R_SQUARED 0.98, PBLUC_HILL_SLOPE 1.25, PBLUC_R_SQUARED 0.783, read-out: LUCIFERASE INFECTION ASSAY - IC50): 1.65 µM
O=C(COc1ccccc1C(=O)Nc1ccccc1)NC(c1ccc(F)cc1)c1cccs1 (stereo not given) | > 10 | IC50 (FFLUC_HILL_SLOPE 12.2, FFLUC_R_SQUARED 0.17, PBLUC_HILL_SLOPE 2.56, PBLUC_R_SQUARED 0.393, read-out: LUCIFERASE INFECTION ASSAY - IC50): 7.16 µM
Cc1cccc(N/N=C2\C=NN=C2c2ccc(Br)cc2)c1 | > 9.67 | IC50 (FFLUC_HILL_SLOPE 12.3, FFLUC_R_SQUARED 0.435, HEPG2TOX_HILL_SLOPE 0.345, HEPG2TOX_R_SQUARED 0.819, PBLUC_HILL_SLOPE 10.9, PBLUC_R_SQUARED 0.46, read-out: LUCIFERASE INFECTION ASSAY - IC50): 9.21 µM
c1ccc2c3c(ccc2c1)CCc1ccc2ccccc2c1-3 | > 11.8 | IC50 (FFLUC_HILL_SLOPE 12.1, FFLUC_R_SQUARED 0.622, read-out: LUCIFERASE INFECTION ASSAY - IC50): > 11.8 µM
COc1ccc(N(Cc2cn(-c3ccccc3)nc2-c2ccc(Cl)cc2)S(=O)(=O)c2ccccc2)cc1 | > 10 | IC50 (FFLUC_HILL_SLOPE 12.1, FFLUC_R_SQUARED 0.616, PBLUC_HILL_SLOPE 4, PBLUC_R_SQUARED 0.331, read-out: LUCIFERASE INFECTION ASSAY - IC50): 7.59 µM
CCN(C(=O)CSc1nc2ccccc2c(=O)n1-c1ccc(C(C)C)cc1)c1cccc2ccccc12 | 9.59 | IC50 (FFLUC_HILL_SLOPE 12.2, FFLUC_R_SQUARED 0.564, PBLUC_HILL_SLOPE 2.95, PBLUC_R_SQUARED 0.421, read-out: LUCIFERASE INFECTION ASSAY - IC50): 4.55 µM
O=c1c2c3c(sc2nc(SCc2cc(=O)n4ccsc4n2)n1-c1ccccc1C(F)(F)F)CCCCC3 | > 10 | IC50 (FFLUC_HILL_SLOPE 12.2, FFLUC_R_SQUARED 0.743, read-out: LUCIFERASE INFECTION ASSAY - IC50): > 10 µM
Cc1c(OCC(=O)NCc2ccccn2)ccc2c1oc(=O)c1ccccc12 | > 8.81 | IC50 (FFLUC_HILL_SLOPE 12.1, FFLUC_R_SQUARED 0.777, PBLUC_HILL_SLOPE 13, PBLUC_R_SQUARED 0.252, read-out: LUCIFERASE INFECTION ASSAY - IC50): 8.19 µM
COc1ccc(/N=c2\scc(-c3ccc(OC(F)F)cc3)n2/N=C/c2ccccc2[N+](=O)[O-])cc1 | 7.35 | IC50 (FFLUC_HILL_SLOPE 12.1, FFLUC_R_SQUARED 0.633, PBLUC_HILL_SLOPE 109, PBLUC_R_SQUARED 0.183, read-out: LUCIFERASE INFECTION ASSAY - IC50): 7.2 µM
COc1cc(N(CC(=O)Nc2ccc(Cl)cc2)S(=O)(=O)c2ccc(Cl)cc2)c(Cl)cc1Cl | > 6.18 | IC50 (FFLUC_HILL_SLOPE 12.3, FFLUC_R_SQUARED 0.349, HEPG2TOX_HILL_SLOPE 3.41, HEPG2TOX_R_SQUARED 0.407, PBLUC_HILL_SLOPE 12, PBLUC_R_SQUARED 0.0202, read-out: LUCIFERASE INFECTION ASSAY - IC50): 5.6 µM
CC(C)(C)c1ccc(-c2nnc(SCc3ccc([N+](=O)[O-])cc3)n2-c2cccc(C(F)(F)F)c2)cc1 | > 6.44 | IC50 (FFLUC_HILL_SLOPE 12, FFLUC_R_SQUARED 0.571, HEPG2TOX_HILL_SLOPE 0.228, HEPG2TOX_R_SQUARED 0.238, read-out: LUCIFERASE INFECTION ASSAY - IC50): > 6.44 µM
CC(C)(C)c1cc(C(=O)OCC(=O)N2CCCc3ccccc32)cc(C(C)(C)C)c1 | 9.87 | IC50 (FFLUC_HILL_SLOPE 12.2, FFLUC_R_SQUARED 0.329, PBLUC_HILL_SLOPE 3.02, PBLUC_R_SQUARED 0.491, read-out: LUCIFERASE INFECTION ASSAY - IC50): 4.77 µM
CCOc1ccc(-n2c(SC(C)C(=O)c3ccc(C(C)C)cc3C(C)C)nnc2-c2c[nH]c3ccccc23)cc1 (stereo not given) | > 10 | IC50 (FFLUC_HILL_SLOPE 12.2, FFLUC_R_SQUARED 0.489, PBLUC_HILL_SLOPE 1.92, PBLUC_R_SQUARED 0.281, read-out: LUCIFERASE INFECTION ASSAY - IC50): 5.8 µM
Cc1ccc(NS(=O)(=O)c2ccc(C(=O)Nc3ncccc3O)cc2)cc1C | 1.88 | IC50 (FFLUC_HILL_SLOPE 12.3, FFLUC_R_SQUARED 0.189, HEPG2TOX_HILL_SLOPE 11.2, HEPG2TOX_R_SQUARED 0.187, PBLUC_HILL_SLOPE 1.78, PBLUC_R_SQUARED 0.764, read-out: LUCIFERASE INFECTION ASSAY - IC50): 0.549 µM
COc1cc2c(cc1OC)C(c1cccs1)N(C(=O)CC1CCCC1)CC2 (stereo not given) | > 10 | IC50 (FFLUC_HILL_SLOPE 12.1, FFLUC_R_SQUARED 0.331, HEPG2TOX_HILL_SLOPE 1.22, HEPG2TOX_R_SQUARED 0.987, PBLUC_HILL_SLOPE 1.62, PBLUC_R_SQUARED 0.49, read-out: LUCIFERASE INFECTION ASSAY - IC50): 2.88 µM
CCCCn1c(N)c(N(C)CC(=O)Nc2scc(-c3ccccc3)c2C(=O)OCC)c(=O)[nH]c1=O | 8.26 | IC50 (FFLUC_HILL_SLOPE 12.3, FFLUC_R_SQUARED 0.419, PBLUC_HILL_SLOPE 4.64, PBLUC_R_SQUARED 0.375, read-out: LUCIFERASE INFECTION ASSAY - IC50): 5.15 µM
O=C1C(=O)N(Cc2ccccc2Cl)c2c1cccc2C(F)(F)F | 3.7 | IC50 (FFLUC_HILL_SLOPE 12, FFLUC_R_SQUARED 0.566, HEPG2TOX_HILL_SLOPE 13.8, HEPG2TOX_R_SQUARED 0.966, PBLUC_HILL_SLOPE 12.2, PBLUC_R_SQUARED 0.654, read-out: LUCIFERASE INFECTION ASSAY - IC50): 3.09 µM
Nn1c(SCc2cc(F)cc3c2OC(c2ccccc2)OC3)nnc1-c1ccc(OC(F)F)cc1 (stereo not given) | > 10 | IC50 (FFLUC_HILL_SLOPE 12.2, FFLUC_R_SQUARED 0.768, read-out: LUCIFERASE INFECTION ASSAY - IC50): > 10 µM
O=C(CCc1ccc(-c2ccccc2)o1)Nc1nc(-c2ccccn2)cs1 | > 10 | IC50 (FFLUC_HILL_SLOPE 12.1, FFLUC_R_SQUARED 0.705, read-out: LUCIFERASE INFECTION ASSAY - IC50): > 10 µM
Cc1ccc(N2C(=O)/C(=C\Nc3cc(Cl)ccc3[N+](=O)[O-])c3ccccc3C2=O)c(C)c1 | > 10 | IC50 (FFLUC_HILL_SLOPE 12.2, FFLUC_R_SQUARED 0.8, read-out: LUCIFERASE INFECTION ASSAY - IC50): > 10 µM
CCc1cccc(CC)c1N(C(C)=O)c1nc(/C=C/C(=O)c2ccc3c(c2)OCCO3)cs1 | 3.81 | IC50 (FFLUC_HILL_SLOPE 12.1, FFLUC_R_SQUARED 0.466, HEPG2TOX_HILL_SLOPE 15.2, HEPG2TOX_R_SQUARED 0.81, PBLUC_HILL_SLOPE 12.5, PBLUC_R_SQUARED 0.644, read-out: LUCIFERASE INFECTION ASSAY - IC50): 3.2 µM
CC(OC(=O)[C@@H](Nc1ccc(C(F)(F)F)cc1Cl)C(C)C)C(=O)NC(=O)NC1CCCCC1 (stereo not given in full) | 6.57 | IC50 (FFLUC_HILL_SLOPE 12, FFLUC_R_SQUARED 0.576, PBLUC_HILL_SLOPE 4.18, PBLUC_R_SQUARED 0.859, read-out: LUCIFERASE INFECTION ASSAY - IC50): 3.88 µM
CC1=C(C(=O)OCc2ccccc2)C(c2ccccc2OC(C)C)CC(=O)N1 (stereo not given) | > 8.7 | IC50 (FFLUC_HILL_SLOPE 12.1, FFLUC_R_SQUARED 0.679, read-out: LUCIFERASE INFECTION ASSAY - IC50): > 8.7 µM
O=C(COc1ccc(Cl)cc1Br)c1ccc[nH]1 | > 10 | IC50 (FFLUC_HILL_SLOPE 12.1, FFLUC_R_SQUARED 0.341, HEPG2TOX_HILL_SLOPE 8.8, HEPG2TOX_R_SQUARED 0.689, read-out: LUCIFERASE INFECTION ASSAY - IC50): > 10 µM
Cc1ccc(Br)c(NS(=O)(=O)c2cccc(C(=O)Nc3cccc4c[nH]nc34)c2)c1 | > 10 | IC50 (FFLUC_HILL_SLOPE 12.1, FFLUC_R_SQUARED 0.239, PBLUC_HILL_SLOPE 20.2, PBLUC_R_SQUARED 0.144, read-out: LUCIFERASE INFECTION ASSAY - IC50): 9.98 µM
Clc1ccccc1CN(Cc1nc2ccccc2[nH]1)Cc1nc2ccccc2[nH]1 | 4.32 | IC50 (FFLUC_HILL_SLOPE 12.2, FFLUC_R_SQUARED 0.134, HEPG2TOX_HILL_SLOPE 11.4, HEPG2TOX_R_SQUARED 0.932, PBLUC_HILL_SLOPE 13.3, PBLUC_R_SQUARED 0.326, read-out: LUCIFERASE INFECTION ASSAY - IC50): 3.67 µM
COc1ccc(-c2ccnn2-c2nc3ccccc3nc2C(F)(F)F)cc1 | 8.87 | IC50 (FFLUC_HILL_SLOPE 12, FFLUC_R_SQUARED 0.622, HEPG2TOX_HILL_SLOPE 8.32, HEPG2TOX_R_SQUARED 0.411, PBLUC_HILL_SLOPE 4.15, PBLUC_R_SQUARED 0.462, read-out: LUCIFERASE INFECTION ASSAY - IC50): 5.22 µM
